{"source": "paper PMC10819888", "about": "“Benzimidazole-Based Derivatives as Apoptotic Antiproliferative Agents: Design, Synthesis, Docking, and Mechanistic Studies” (Molecules, 2024)", "key": {"HL-60(TB)": {"system": "HL-60(TB)", "assay": "NCI-60 five-dose assay", "type": "cell-based, human", "details": "HL-60(TB), Leukemia"}, "SR": {"system": "SR", "assay": "NCI-60 five-dose assay", "type": "cell-based, human", "details": "SR, Leukemia"}, "HOP-62": {"system": "HOP-62", "assay": "NCI-60 five-dose assay", "type": "cell-based, human", "details": "HOP-62, Non-Small Cell Lung Cancer"}, "NCI-H322M": {"system": "NCI-H322M", "assay": "NCI-60 five-dose assay", "type": "cell-based, human", "details": "NCI-H322M, Non-Small Cell Lung Cancer"}, "HT29": {"system": "HT29", "assay": "NCI-60 five-dose assay", "type": "cell-based, human", "details": "HT29, Colon Cancer"}, "SF-539": {"system": "SF-539", "assay": "NCI-60 five-dose assay", "type": "cell-based, human", "details": "SF-539, CNS Cancer"}, "SNB-75": {"system": "SNB-75", "assay": "NCI-60 five-dose assay", "type": "cell-based, human", "details": "SNB-75, CNS Cancer"}, "U251": {"system": "U251", "assay": "NCI-60 five-dose assay", "type": "cell-based, human", "details": "U251, CNS Cancer"}, "M14": {"system": "M14", "assay": "NCI-60 five-dose assay", "type": "cell-based, human", "details": "M14, Melanoma"}, "MDA-MB-435": {"system": "MDA-MB-435", "assay": "NCI-60 five-dose assay", "type": "cell-based, human", "details": "MDA-MB-435, Melanoma"}, "SK-MEL-2": {"system": "SK-MEL-2", "assay": "NCI-60 five-dose assay", "type": "cell-based, human", "details": "SK-MEL-2, Melanoma"}, "SK-MEL-5": {"system": "SK-MEL-5", "assay": "NCI-60 five-dose assay", "type": "cell-based, human", "details": "SK-MEL-5, Melanoma"}, "OVCAR-3": {"system": "OVCAR-3", "assay": "NCI-60 five-dose assay", "type": "cell-based, human", "details": "OVCAR-3, Ovarian Cancer"}, "NCI/ADR-RES": {"system": "NCI/ADR-RES", "assay": "NCI-60 five-dose assay", "type": "cell-based, human", "details": "NCI/ADR-RES, Ovarian Cancer"}, "A498": {"system": "A498", "assay": "NCI-60 five-dose assay", "type": "cell-based, human", "details": "A498, Renal Cancer"}, "ACHN": {"system": "ACHN", "assay": "NCI-60 five-dose assay", "type": "cell-based, human", "details": "ACHN, Renal Cancer"}, "TK-10": {"system": "TK-10", "assay": "NCI-60 five-dose assay", "type": "cell-based, human", "details": "TK-10, Renal Cancer"}, "UO-31": {"system": "UO-31", "assay": "NCI-60 five-dose assay", "type": "cell-based, human", "details": "UO-31, Renal Cancer"}, "PC-3": {"system": "PC-3", "assay": "NCI-60 five-dose assay", "type": "cell-based, human", "details": "PC-3, Prostate Cancer"}, "MDA-MB-231": {"system": "MDA-MB-231", "assay": "NCI-60 five-dose assay", "type": "cell-based, human", "details": "MDA-MB-231, Breast Cancer"}, "BT-549": {"system": "BT-549", "assay": "NCI-60 five-dose assay", "type": "cell-based, human", "details": "Homo sapiens, BT-549, Breast Cancer"}, "[1]": {"system": "Non-Small Cell Lung Cancer subpanel", "assay": "NCI-60 five-dose assay, subpanel", "type": "cell-based, human", "details": "Non-Small Cell Lung Cancer"}, "Colon Cancer subpanel": {"system": "Colon Cancer subpanel", "assay": "NCI-60 five-dose assay, subpanel", "type": "cell-based, human", "details": "Colon Cancer"}, "Prostate Cancer subpanel": {"system": "Prostate Cancer subpanel", "assay": "NCI-60 five-dose assay, subpanel", "type": "cell-based, human", "details": "Prostate Cancer"}, "Breast Cancer subpanel": {"system": "Breast Cancer subpanel", "assay": "NCI-60 five-dose assay, subpanel", "type": "cell-based, human", "details": "Breast Cancer"}, "[2]": {"system": "full panel of 60 human tumor cell lines", "assay": "NCI-60 five-dose assay, full panel", "type": "cell-based"}, "[3]": {"details": "Homo sapiens, read-out: GI50 Conc. per Cell Line"}, "[4]": {"details": "Homo sapiens, read-out: LC50 (the source's name)"}, "[5]": {"details": "Homo sapiens, average sensitivity of all subpanel cell lines, read-out: GI50 Subpanel MID b"}}, "note": "Like-named read-outs stand apart in the source and are kept apart here.", "data": [{"smiles": "COc1ccc(C=NNC(=O)c2ccc3[nH]c(-c4ccc(Cl)cc4)nc3c2)cc1", "note": "[Compound 4g, N′-(4-Methoxybenzylidene)-2-(4-chlorophenyl)-1H-benzimidazole-5-carbohydrazide]", "values": [{"measurement": "TGI", "setting": "HL-60(TB)", "value": ">100", "unit": "µM"}, {"measurement": "GI50", "setting": "HL-60(TB); [3]", "value": 1.3, "unit": "µM"}, {"measurement": "CC50", "setting": "HL-60(TB); [4]", "value": "> 100", "unit": "µM"}, {"measurement": "GI50", "setting": "SR; [3]", "value": 2.87, "unit": "µM"}, {"measurement": "CC50", "setting": "SR; [4]", "value": "> 100", "unit": "µM"}, {"measurement": "TGI", "setting": "SR", "value": 15.40, "unit": "µM"}, {"measurement": "TGI", "setting": "HOP-62", "value": 6.37, "unit": "µM"}, {"measurement": "GI50", "setting": "HOP-62; [3]", "value": 1.88, "unit": "µM"}, {"measurement": "CC50", "setting": "HOP-62; [4]", "value": 53.6, "unit": "µM"}, {"measurement": "GI50", "setting": "NCI-H322M; [3]", "value": 2.49, "unit": "µM"}, {"measurement": "CC50", "setting": "NCI-H322M; [4]", "value": 55.4, "unit": "µM"}, {"measurement": "TGI", "setting": "NCI-H322M", "value": 7.20, "unit": "µM"}, {"measurement": "TGI", "setting": "HT29", "value": 22.10, "unit": "µM"}, {"measurement": "GI50", "setting": "HT29; Homo sapiens, HT-29, read-out: GI50 Conc. per Cell Line", "value": 3.09, "unit": "µM"}, {"measurement": "CC50", "setting": "HT29; Homo sapiens, HT-29, read-out: LC50 (the source's name)", "value": "> 100", "unit": "µM"}, {"measurement": "GI50", "setting": "SF-539; [3]", "value": 1.73, "unit": "µM"}, {"measurement": "CC50", "setting": "SF-539; [4]", "value": 6.92, "unit": "µM"}, {"measurement": "TGI", "setting": "SF-539", "value": 3.46, "unit": "µM"}, {"measurement": "GI50", "setting": "SNB-75; [3]", "value": 1.53, "unit": "µM"}, {"measurement": "CC50", "setting": "SNB-75; [4]", "value": 25.7, "unit": "µM"}, {"measurement": "TGI", "setting": "SNB-75", "value": 4.57, "unit": "µM"}, {"measurement": "GI50", "setting": "U251; Homo sapiens, U-251, read-out: GI50 Conc. per Cell Line", "value": 2.43, "unit": "µM"}, {"measurement": "CC50", "setting": "U251; Homo sapiens, U-251, read-out: LC50 (the source's name)", "value": 30.4, "unit": "µM"}, {"measurement": "TGI", "setting": "U251", "value": 5.22, "unit": "µM"}, {"measurement": "GI50", "setting": "M14; [3]", "value": 2.41, "unit": "µM"}, {"measurement": "CC50", "setting": "M14; [4]", "value": 40.5, "unit": "µM"}, {"measurement": "TGI", "setting": "M14", "value": 7.76, "unit": "µM"}, {"measurement": "GI50", "setting": "MDA-MB-435; [3]", "value": 3.11, "unit": "µM"}, {"measurement": "CC50", "setting": "MDA-MB-435; [4]", "value": 45.5, "unit": "µM"}, {"measurement": "TGI", "setting": "MDA-MB-435", "value": 9.84, "unit": "µM"}, {"measurement": "LC50", "setting": "SK-MEL-2; Homo sapiens", "value": 69.7, "unit": "µM"}, {"measurement": "GI50", "setting": "SK-MEL-2; [3]", "value": 3.59, "unit": "µM"}, {"measurement": "TGI", "setting": "SK-MEL-2", "value": 13.80, "unit": "µM"}, {"measurement": "GI50", "setting": "SK-MEL-5; [3]", "value": 1.89, "unit": "µM"}, {"measurement": "CC50", "setting": "SK-MEL-5; [4]", "value": 7.95, "unit": "µM"}, {"measurement": "TGI", "setting": "SK-MEL-5", "value": 3.88, "unit": "µM"}, {"measurement": "GI50", "setting": "OVCAR-3; [3]", "value": 2.28, "unit": "µM"}, {"measurement": "CC50", "setting": "OVCAR-3; [4]", "value": 16, "unit": "µM"}, {"measurement": "TGI", "setting": "OVCAR-3", "value": 5.14, "unit": "µM"}, {"measurement": "GI50", "setting": "NCI/ADR-RES; [3]", "value": 7.81, "unit": "µM"}, {"measurement": "CC50", "setting": "NCI/ADR-RES; [4]", "value": "> 100", "unit": "µM"}, {"measurement": "TGI", "setting": "NCI/ADR-RES", "value": ">100", "unit": "µM"}, {"measurement": "TGI", "setting": "A498", "value": 9.87, "unit": "µM"}, {"measurement": "GI50", "setting": "A498; [3]", "value": 2.45, "unit": "µM"}, {"measurement": "CC50", "setting": "A498; [4]", "value": 54.6, "unit": "µM"}, {"measurement": "TGI", "setting": "ACHN", "value": 5.04, "unit": "µM"}, {"measurement": "GI50", "setting": "ACHN; [3]", "value": 2, "unit": "µM"}, {"measurement": "CC50", "setting": "ACHN; [4]", "value": 16.9, "unit": "µM"}, {"measurement": "GI50", "setting": "TK-10; [3]", "value": 2.95, "unit": "µM"}, {"measurement": "CC50", "setting": "TK-10; [4]", "value": 56.7, "unit": "µM"}, {"measurement": "TGI", "setting": "TK-10", "value": 6.59, "unit": "µM"}, {"measurement": "GI50", "setting": "UO-31; [3]", "value": 1.86, "unit": "µM"}, {"measurement": "CC50", "setting": "UO-31; [4]", "value": 25.7, "unit": "µM"}, {"measurement": "TGI", "setting": "UO-31", "value": 6.38, "unit": "µM"}, {"measurement": "LC50", "setting": "PC-3; Homo sapiens", "value": 8.55, "unit": "µM"}, {"measurement": "GI50", "setting": "PC-3; [3]", "value": 1.65, "unit": "µM"}, {"measurement": "TGI", "setting": "PC-3", "value": 3.76, "unit": "µM"}, {"measurement": "GI50", "setting": "MDA-MB-231; [3]", "value": 2.42, "unit": "µM"}, {"measurement": "CC50", "setting": "MDA-MB-231; [4]", "value": 18.8, "unit": "µM"}, {"measurement": "TGI", "setting": "MDA-MB-231", "value": 5.45, "unit": "µM"}, {"measurement": "GI50", "setting": "BT-549; read-out: GI50 Conc. per Cell Line", "value": 3.36, "unit": "µM"}, {"measurement": "CC50", "setting": "BT-549; read-out: LC50 (the source's name)", "value": "> 100", "unit": "µM"}, {"measurement": "GI50", "setting": "[1]; [5]", "value": 2.71, "unit": "µM"}, {"measurement": "GI50 Selectivity Ratio (MID a/MID b)", "setting": "[1]", "value": 0.93}, {"measurement": "GI50 Selectivity Ratio (MID a/MID b)", "setting": "Colon Cancer subpanel", "value": 0.96}, {"measurement": "GI50", "setting": "Colon Cancer subpanel; [5]", "value": 2.63, "unit": "µM"}, {"measurement": "GI50", "setting": "Prostate Cancer subpanel; [5]", "value": 1.81, "unit": "µM"}, {"measurement": "GI50 Selectivity Ratio (MID a/MID b)", "setting": "Prostate Cancer subpanel", "value": 1.39}, {"measurement": "GI50 Selectivity Ratio (MID a/MID b)", "setting": "Breast Cancer subpanel", "value": 1.12}, {"measurement": "GI50", "setting": "Breast Cancer subpanel; [5]", "value": 2.24, "unit": "µM"}, {"measurement": "GI50", "setting": "[2]; average sensitivity of all cell lines, read-out: MID a (GI50)", "value": 2.52, "unit": "µM"}, {"measurement": "GI50", "setting": "[2]; five-dose assay, range over cell lines, read-out: GI50 range over the examined cell lines", "value": "0.997 to 7.81", "unit": "µM"}]}]}
